Measurements reported in patent US20240174634A1, “Aldehyde Dehydrogenase Inhibitors and Their Therapeutic Use” (priority 2020, published 2024).

Tests used:
ALDH1A1 = biological target: T1, ALDH1A1 (Homo sapiens, UniProt P00352); test: Selectivity biochemical assay, NAD(P)H-Glo Detection System
T1 construct: His-tag; made in house; host or cells: E. coli Rosetta (DE3)
T1 sequence (P00352 1-501): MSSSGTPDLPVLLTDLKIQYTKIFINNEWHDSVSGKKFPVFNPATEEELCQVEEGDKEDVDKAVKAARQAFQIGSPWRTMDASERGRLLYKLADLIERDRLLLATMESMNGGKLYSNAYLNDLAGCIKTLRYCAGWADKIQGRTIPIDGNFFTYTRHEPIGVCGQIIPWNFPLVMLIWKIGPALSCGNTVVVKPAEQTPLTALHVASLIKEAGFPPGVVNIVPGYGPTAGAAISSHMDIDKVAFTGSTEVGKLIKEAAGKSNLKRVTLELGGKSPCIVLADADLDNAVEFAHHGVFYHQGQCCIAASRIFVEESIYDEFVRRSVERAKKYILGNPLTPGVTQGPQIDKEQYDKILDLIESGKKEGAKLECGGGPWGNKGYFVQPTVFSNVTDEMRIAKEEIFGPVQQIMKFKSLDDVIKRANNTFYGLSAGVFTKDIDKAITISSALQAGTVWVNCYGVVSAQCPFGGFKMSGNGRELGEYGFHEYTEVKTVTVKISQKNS
Excerpt: (§1) Cloning: Open reading frames corresponding to the protein coding sequences of full length human ALDH1A1 (Uniprot ID P00352), ALDH1A2 (094788) and ALDH1A3 (P47895) were polymerase chain reaction (PCR) amplified from human cDNA and inserted into the multi-cloning sites of the commercially available (Novagen) E. coli expression vectors pET47b (ALDH1A1, EcoRI restriction site; ALDH1A2, BamHI and EcoRI sites) or pET28a (ALDH1A3, NdeI and BamHI sites), using standard molecular genetic techniques. Recombinant DNA products were sequence verified prior to use in expression studies.
(§2) Expression: Expression constructs were transformed into the E. coli strain Rosetta (DE3) (Merck) and individual colonies used to inoculate 10 mL lysogen broth (LB) medium supplemented with kanamycin and chloramphenicol at 50 μg/mL and 34 μg/mL, respectively. Cultures were grown to saturation overnight at 37° C., prior to being used to sub-inoculate fresh 1 L LB medium cultures (plus antibiotics, as before). 1 L cultures were grown at 37° C., 200 rpm, throughout the day until the optical density at 600 nm (OD600) reached ˜0.8, at which point growth temperature was reduced to 18° C. and 1 mM isopropyl β-d-1-thiogalacto pyranoside (IPTG) added to induce protein expression.
(§3) Cultures were left overnight (at least 16 h) under these conditions and the following day harvested by centrifugation (4000 G, 10 minutes). Culture supernatant was discarded and cell pellets stored at −80° C. until further processing.
(§4) Purification: Cell pellets were thawed on ice, re-suspended in Ni Affinity Buffer A (20 mM HEPES pH 7.5, 300 mM NaCl, 20 mM imidazole, 1 mM tris(2-carboxyethyl)phosphine (TCEP)) with protease inhibitors (cOmplete Ultra protease inhibitor, Roche), and lysed by sonication. Lysates were clarified by centrifugation at 18,000 G, 4° C., for 40 minutes, and loaded directly onto a pre-equilibrated (Buffer A) 5 mL HisTrap Fast Flow column (GE Healthcare) by way of an AKTA Fast Protein Liquid Chromatography (FPLC) system. The column was sequentially treated with 6 column volumes (CV) 100% Buffer A, 8 CV of 90% Buffer A:10% Buffer B (20 mM 4-(2-hydroxyethyl)-1-piperazineethanesulfonic acid (HEPES) pH 7.5, 300 mM NaCl, 500 mM imidazole, 1 mM TCEP) and finally a linear gradient from 10-70% Buffer B over 8 CV to elute recombinant His-tagged protein. Relevant fractions (as measured by 280 nm absorbance) collected during elution were pooled and subjected to further purification by size exclusion chromatography (Superdex 200 26/600, GE Healthcare, running buffer 20 mM 2-(carbamoylmethylamino)ethanesulfonic acid (ACES) pH 7.5, 1 mM TCEP). Relevant fractions from this step were pooled, aliquoted, and stored at −80° C. until required for compound profiling assays.
(§5) Materials: ALDH2 was purchased from Abnova. Tris(hydroxymethyl)aminomethane (Tris) was purchased from MP Biomedicals. TCEP, ethylenediaminetetraacetic acid (EDTA), propionaldehyde, DMSO and Tween-20 were purchased from Sigma. Nicotinamide adenine dinucleotide (NAD) was obtained from Abcam. The NAD(P)H-Glo™ Detection System was purchased from Promega. White, non-binding surface, 384 well plates were supplied by Corning (#3574).
(§6) Method: Inhibition of ALDH1A3 was assessed using the NAD(P)H-Glo™ Detection System (Cat. No. G9062) from Promega. This assay detects the production of NADH from NAD by ALDH1A3 via the coupled enzymatic conversion of a proluciferin reductase substrate to generate a luminescent signal. Inhibition of ALDH1A3 by small molecule inhibitors will result in reduction or abrogation of luminescence signal increase above background. Inhibition of ALDH1A1, ALDH1A2 and ALDH2 (selectivity assays) were assessed using the same assay.
(§7) Compounds were dosed into Corning 384 well assay plates using an Echo acoustic dispenser to give 10 point curves in a 3-fold dilution series. Compounds were dispensed from a 20 mM DMSO stock and initially screened at a top concentration of 20 μM (ALDH1A3) or 250 μM (ALDH1A1, ALDH1A2 & ALDH2). […]

ALDH1A3 = biological target: T2, ALDH1A3 (Homo sapiens, UniProt P47895); test: Primary biochemical assay, NAD(P)H-Glo Detection System; parameters: His-tag; made in house; host or cells: E. coli Rosetta (DE3); conditions: 30 min pre-incubation, propionaldehyde and NAD at Km
T2 sequence (P47895 1-512): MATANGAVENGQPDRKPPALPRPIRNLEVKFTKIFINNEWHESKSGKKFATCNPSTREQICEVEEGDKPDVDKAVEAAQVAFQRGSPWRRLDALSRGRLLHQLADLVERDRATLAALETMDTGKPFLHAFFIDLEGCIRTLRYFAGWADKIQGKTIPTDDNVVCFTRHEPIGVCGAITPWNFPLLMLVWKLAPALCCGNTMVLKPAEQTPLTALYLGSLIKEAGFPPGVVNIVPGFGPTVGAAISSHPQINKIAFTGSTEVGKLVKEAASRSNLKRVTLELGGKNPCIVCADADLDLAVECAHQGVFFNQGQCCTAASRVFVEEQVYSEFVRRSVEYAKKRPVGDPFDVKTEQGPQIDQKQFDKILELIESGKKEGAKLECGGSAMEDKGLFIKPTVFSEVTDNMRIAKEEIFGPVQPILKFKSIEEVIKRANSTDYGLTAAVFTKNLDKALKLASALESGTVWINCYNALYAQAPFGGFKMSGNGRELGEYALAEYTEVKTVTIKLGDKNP
Excerpt: as §1, §2, §3, §4, §5, §6, §7

Compound	IC50 (ALDH1A1) [µM]	IC50 (ALDH1A3) [µM]
Cc1onc(-c2cccc(F)c2)c1C(=O)Nc1ccc2c(c1)CCC(=O)N2 [ALDHI-1009, 3-(3-fluorophenyl)-5-methyl-N-(2-oxo-3,4-dihydro-1H-quinolin-6-yl)isoxazole-4-carboxamide]	≥ 100	1 to 10
O=C1CCc2cc(NC(=O)c3scnc3-c3cccc(C(F)(F)F)c3)ccc2N1 [ALDHI-1015, N-(2-oxo-3,4-dihydro-1H-quinolin-6-yl)-4-[3-(trifluoromethyl)phenyl]thiazole-5-carboxamide]	≥ 100	1 to 10
O=C1CCc2cc(NC(=O)c3scnc3-c3cc(F)cc(F)c3)ccc2N1 [ALDHI-1024, 4-(3,5-difluorophenyl)-N-(2-oxo-3,4-dihydro-1H-quinolin-6-yl)thiazole-5-carboxamide]	≥ 100	< 0.1
O=C1CCc2cc(NC(=O)c3scnc3-c3cccc(F)c3)c(F)cc2N1 [ALDHI-1025, N-(7-fluoro-2-oxo-3,4-dihydro-1H-quinolin-6-yl)-4-(3-fluorophenyl)thiazole-5-carboxamide]	≥ 100	< 0.1
Cc1nc(-c2cccc(F)c2)c(C(=O)Nc2ccc3c(c2)CCC(=O)N3)s1 [ALDHI-1026, 4-(3-fluorophenyl)-2-methyl-N-(2-oxo-3,4-dihydro-1H-quinolin-6-yl)thiazole-5-carboxamide]	≥ 100	< 0.1
Cc1nn(C)cc1C1CCCN1CCOc1ccc2c(c1)CCC(=O)N2 (stereo not shown) [ALDHI-2015, 6-[2-[2-(1,3-dimethylpyrazol-4-yl)pyrrolidin-1-yl]ethoxy]-3,4-dihydro-1H-quinolin-2-one]	≥ 100	1 to 10
Cn1cccc1C1CCCN1CCOc1ccc2c(c1)CCC(=O)N2 (stereo not shown) [ALDHI-2017, 6-[2-[2-(1-methylpyrrol-2-yl)pyrrolidin-1-yl]ethoxy]-3,4-dihydro-1H-quinolin-2-one]	≥ 100	1 to 10
Cn1cc(C2CCCN2CCOc2ccc3c(c2)OCC(=O)N3)cn1 (stereo not shown) [ALDHI-2024, 7-[2-[2-(1-methylpyrazol-4-yl)pyrrolidin-1-yl]ethoxy]-4H-1,4-benzoxazin-3-one]	≥ 100	1 to 10
O=C1COc2cc(OCCN3CCCC3c3ccccn3)ccc2N1 (stereo not shown) [ALDHI-2025, 7-[2-[2-(2-pyridyl)pyrrolidin-1-yl]ethoxy]-4H-1,4-benzoxazin-3-one]	≥ 100	1 to 10
O=C1CCc2cc(OCCN3CCNCC3c3ccccc3)ccc2N1 (stereo not shown) [ALDHI-2036, 6-[2-(2-phenylpiperazin-1-yl)ethoxy]-3,4-dihydro-1H-quinolin-2-one]	≥ 100	1 to 10
CS(=O)(=O)N1CCN(CCOc2ccc3c(c2)CCC(=O)N3)C(c2ccccc2)C1 (stereo not shown) [ALDHI-2046, 6-[2-(4-methylsulfonyl-2-phenyl-piperazin-1-yl)ethoxy]-3,4-dihydro-1H-quinolin-2-one]	10 to 100	1 to 10
CCCC1Oc2cc(OCCN3CCCC3c3cccc(F)c3)ccc2NC1=O (stereo not shown) [ALDHI-2047, 7-[2-[2-(3-fluorophenyl)pyrrolidin-1-yl]ethoxy]-2-propyl-4H-1,4-benzoxazin-3-one]	≥ 100	1 to 10
CC(C)C1Oc2cc(OCCN3CCCC3c3cccc(F)c3)ccc2NC1=O (stereo not shown) [ALDHI-2049, 7-[2-[2-(3-fluorophenyl)pyrrolidin-1-yl]ethoxy]-2-isopropyl-4H-1,4-benzoxazin-3-one]	≥ 100	1 to 10
CN(CCOc1ccc2c(c1)CCC(=O)N2)Cc1cnn(C)c1 [ALDHI-3009, 6-[2-[methyl-[(1-methylpyrazol-4-yl)methyl]amino]ethoxy]-3,4-dihydro-1H-quinolin-2-one]	10 to 100	1 to 10
Cn1cc(CN(CCO)CCOc2ccc3c(c2)CCC(=O)N3)cn1 [ALDHI-3011, 6-[2-[2-hydroxyethyl-[(1-methylpyrazol-4-yl)methyl]amino]ethoxy]-3,4-dihydro-1H-quinolin-2-one]	10 to 100	1 to 10
CN(CCOc1ccc2c(c1)CCC(=O)N2)Cc1ccccn1 [ALDHI-3012, 6-[2-[methyl(2-pyridylmethyl)amino]ethoxy]-3,4-dihydro-1H-quinolin-2-one]	≥ 100	1 to 10
CN(CCOc1ccc2c(c1)CCC(=O)N2)Cc1ccncc1 [ALDHI-3014, 6-[2-[methyl(4-pyridylmethyl)amino]ethoxy]-3,4-dihydro-1H-quinolin-2-one]	≥ 100	1 to 10
